# Results: US20250186408A1, “TREATMENT OF PHARMACORESISTANT EPILEPSY” (Katholieke Universiteit Leuven, priority 2021, published 2025)
# Entries after “also recorded” stand apart in the source; their conditions may differ.
# Key:
# [1] = test system: EKP-induced seizure behaviour in zebrafish larvae; assay: Zebrafish ethyl ketopentanoate (EKP) seizure model, behavioural analysis; type: in vivo, zebrafish (Danio rerio); conditions: for active in the behavioural assay / tolerated in the behavioural assay: 5 dpf larvae, 2 h; for activity against EKP-induced drug-resistant seizures (behavioural) / reduction in EKP-induced drug-resistant seizures (non-significant): maximum tolerated concentration, 7-day-old larvae (FIG. 3); for activity against EKP-induced drug-resistant seizures (behavioural) / reduction in EKP-induced drug-resistant seizures (non-significant) / reduction in EKP-induced seizure behaviour (non-significant): 2 h incubation; for reduction in EKP-induced seizure behaviour (non-significant): 5-day-old larvae; for antiseizure activity at the behavioural level (in words): FIG. 5 and FIG. 3
# Protocol: Experiments were performed as described in (16). In brief, a single 5 or 7 dpf larva was placed in each well of a 96-well plate and treated with either VHC (embryo medium with 1% DMSO) or test compound (dissolved in embryo medium, final solvent concentration of 1% DMSO) in a 100 μL volume. Larvae were incubated in the dark for 2 h at 28° C., whereafter 100 μL of either VHC (embryo medium with 1% DMSO) or 600 μM EKP (dissolved in embryo medium, final solvent concentration of 1% DMSO, 300 μM working concentration) was added to each well. Next, within 5 min the 96-well plate was placed in an automated tracking device (ZebraBox Viewpoint, France) and larval behaviour was video recorded for 30 min. The complete procedure was performed in dark conditions using infrared light. Total locomotor activity was recorded by ZebraLab software (Viewpoint, France) and expressed in actinteg units, which is the sum of pixel changes detected during the defined time interval (5 min). Larval behaviour was depicted as mean actinteg units per 5 min during the 30 min recording period and over consecutive time intervals. Data are pooled from independent experiments and expressed as mean±SD.
# In our search for novel antiseizure compounds with the potential to treat drug-resistant seizures, the zebrafish EKP seizure model was used for hit identification and as critical gate-keeper for further investigation in the pharmacoresistant mouse 6-Hz (44 mA) psychomotor seizure model. An automated behavioural analysis was done of 7-day-old zebrafish larvae using video tracking (ViewPoint, France).
# The compounds were tested in 5-day-old zebrafish larvae at 2 and/or 10 μM, depending on their tolerability, after 2 h incubation time. […] Among the antiseizure hits were compounds from 10 out of 11 classes tested, namely, propynones, propynals, propynols, propenones, amides, quinolinones, naphthyridinones, thiopyranoxides, pyrazolopyridines and indazoles.
# [2] = test system: EKP-induced epileptiform discharges in zebrafish larvae; assay: Zebrafish EKP seizure model, electrophysiology (non-invasive LFP recordings, PSD analysis); type: in vivo, zebrafish (Danio rerio); conditions: 7 dpf larvae; for efficacy against EKP-induced epileptiform discharges 2 μM / efficacy against EKP-induced epileptiform discharges 10 μM: 22 h incubation, mean, normalized PSD 20-90 Hz; for effect on EKP-induced elevated PSD (in words): 22 h
# Protocol: Non-invasive LFP recordings were measured from the midbrain (optic tectum) of 7 dpf zebrafish larvae pre-incubated with VHC only, EKP only, or compound and EKP. […] These steps occurred at 28° C., while further manipulation and electrophysiological recordings occurred at room temperature (±21° C.) and were performed as described before (16, 27). Each recording lasted 600 seconds.
# A power spectral density (PSD) analysis of the recordings was performed using MatLab R2019 software (MATrix LABoratory, USA) as described in (26). The PSD estimate of each LFP recording was summed over each 10 Hz frequency band, ranging from 0 to 160 Hz. Next, the PSD estimates were normalized against the VHC control. Data are expressed as mean±SEM PSD per larva and per condition over the 20-90 Hz region. Outliers were identified via the ROUT test (Q=1%).
# PSD analysis assumes that the epileptiform activity manifests as a high-power oscillation at certain frequencies (26). Thus, if epileptic activity occurs often during the recording an elevated PSD estimate should be found at the corresponding frequency band(s) (26).
# [3] = test system: male NMRI mice; assay: Mouse 6-Hz (44 mA) psychomotor seizure model; type: in vivo; conditions: for mean seizure duration / dose-response relationship (in words): 30 min before stimulation; for dose-response relationship (in words): i.p.
# Protocol: The antiseizure activity of compounds was investigated in the mouse 6-Hz (44 mA) psychomotor seizure model as described before (27). […] Seizure behaviour was video recorded and seizure durations were determined by blinded video analysis by experienced researchers, familiar with the different seizure characteristics. Data are expressed as mean±SD.
# The 6-Hz 44 mA model is an acute model of pharmacoresistant focal impaired awareness seizures, previously referred to as complex partial or psychomotor seizures that are induced by a low frequency, long duration corneal electrical stimulation (6 Hz, 0.2 ms rectangular pulse width, 3 s duration, 44 mA). Seizures are typically characterized by a clonic phase and stereotypical automatic behaviours like stun, forelimb clonus, Straub tail and vibrissae twitching.
smiles,measurement,setting,value
"Nc1ncccc1C(=O)C#Cc1ccc(Cl)c(Cl)c1 [Compound 1.13, 1-(2-aminopyridin-3-yl)-3-(3,4-dichlorophenyl)prop-2-yn-1-one]",active in the behavioural assay,[1],active
same,tolerated in the behavioural assay,[1],tolerated
"O=C(C#Cc1cccc(Cl)c1)c1cccnc1Cl [Compound 1.20, 3-(3-chlorophenyl)-1-(2-chloropyridin-3-yl)prop-2-yn-1-one]",active in the behavioural assay,[1],active
same,tolerated in the behavioural assay,[1],tolerated
"O=C(C#Cc1cccc(Cl)c1)c1cccnc1N1CCOCC1 [Compound 1.21, 3-(3-chlorophenyl)-1-(2-morpholinopyridin-3-yl)prop-2-yn-1-one]",active in the behavioural assay,[1],active
same,tolerated in the behavioural assay,[1],tolerated
"CC(C)(C)c1ccc(C#CC(=O)c2cccnc2N)cc1 [Compound 1.22, 1-(2-aminopyridin-3-yl)-3-(4-(tert-butyl)phenyl)prop-2-yn-1-one]",activity against EKP-induced drug-resistant seizures (behavioural),[1],active; also recorded: most effective
same,efficacy against EKP-induced epileptiform discharges 2 μM,[2]; 2 μM,45%
"CCCCCCC#CC(=O)c1cccnc1N [Compound 1.23, 1-(2-aminopyridin-3-yl)non-2-yn-1-one]",reduction in EKP-induced drug-resistant seizures (non-significant),[1],approximately 20%
same,efficacy against EKP-induced epileptiform discharges 2 μM,[2]; 2 μM,31%
same,efficacy against EKP-induced epileptiform discharges 10 μM,[2]; 10 μM,−25%
"O=C(C#Cc1ccc(Cl)cc1)c1ccccc1 [Compound 1.31, 3-(4-chlorophenyl)-1-phenylprop-2-yn-1-one]",active in the behavioural assay,[1],active
same,tolerated in the behavioural assay,[1],tolerated
"O=C(C#Cc1cccc(F)c1)c1ccccc1 [Compound 1.35, 3-(3-fluorophenyl)-1-phenylprop-2-yn-1-one]",active in the behavioural assay,[1],active
same,tolerated in the behavioural assay,[1],tolerated
"CC(C)(C)c1ccc(C#CC(=O)c2cccc(F)c2)cc1 [Compound 1.39, 3-(4-(tert-butyl)phenyl)-1-(3-fluorophenyl)prop-2-yn-1-one]",efficacy against EKP-induced epileptiform discharges 2 μM,[2]; 2 μM,−61%
"Nc1ccccc1C(=O)C#Cc1cccc(Cl)c1 [Compound 1.40, 1-(2-aminophenyl)-3-(3-chlorophenyl)prop-2-yn-1-one]",efficacy against EKP-induced epileptiform discharges 2 μM,[2]; 2 μM,82%
"CC(C)(C)c1ccc(C#CC=O)cc1 [Compound 2.1, 3-(4-(tert-butyl)phenyl)propiolaldehyde]",efficacy against EKP-induced epileptiform discharges 2 μM,[2]; 2 μM,30%
"CC(C)(C)c1ccc(C#CCc2ccccc2)cc1 [Compound 4.1, 1-(tert-butyl)-4-(3-phenylprop-1-yn-1-yl)benzene]",reduction in EKP-induced seizure behaviour (non-significant),[1]; 2 μM,approximately 23%
same,reduction in EKP-induced seizure behaviour (non-significant),[1]; 10 μM,~19%
same,antiseizure activity at the behavioural level (in words),[1],did not show significant activity
same,efficacy against EKP-induced epileptiform discharges 2 μM,[2]; 2 μM,38%
"Nc1ncccc1C(=O)/C=C/c1cccc(Cl)c1 [Compound 5.2, (E)-1-(2-aminopyridin-3-yl)-3-(3-chlorophenyl)prop-2-en-1-one]",efficacy against EKP-induced epileptiform discharges 2 μM,[2]; 2 μM,55%
"Nc1ncccc1C(=O)N1CCN(c2cccc(Cl)c2)CC1 [Compound 6.1, (2-aminopyridin-3-yl)(4-(3-chlorophenyl)piperazin-1-yl)methanone]",efficacy against EKP-induced epileptiform discharges 2 μM,[2]; 2 μM,61%
same,efficacy against EKP-induced epileptiform discharges 10 μM,[2]; 10 μM,10%
same,mean seizure duration,[3]; 30 mg/kg i.p.,15.5 s
same,mean seizure duration,[3]; 100 mg/kg i.p.,4.3 s
same,mean seizure duration,[3]; 300 mg/kg i.p.,0.5 s
same,mean seizure duration,[3]; 600 mg/kg i.p.,0.5 s
same,dose-response relationship (in words),[3],displayed a dose-response relationship
"CC(C)(C)c1ccc(-c2cc(=O)c3ccccc3[nH]2)cc1 [Compound 7.1, 2-(4-(tert-butyl)phenyl)quinolin-4(1H)-one]",antiseizure activity at the behavioural level (in words),[1],significant antiseizure activity
same,activity against EKP-induced drug-resistant seizures (behavioural),[1],active
same,effect on EKP-induced elevated PSD (in words),[2]; 2 μM,significantly elevated the PSD
same,efficacy against EKP-induced epileptiform discharges 2 μM,[2]; 2 μM,−118%
same,effect on EKP-induced elevated PSD (in words),[2]; 10 μM,significantly elevated the PSD
same,efficacy against EKP-induced epileptiform discharges 10 μM,[2]; 10 μM,−217%
"CC(C)(C)c1ccc(-c2cc(=O)c3cccnc3[nH]2)cc1 [Compound 8.1, 2-(4-(tert-butyl)phenyl)-1,8-naphthyridin-4(1H)-one]",activity against EKP-induced drug-resistant seizures (behavioural),[1],active
same,efficacy against EKP-induced epileptiform discharges 2 μM,[2]; 2 μM,57%
same,efficacy against EKP-induced epileptiform discharges 10 μM,[2]; 10 μM,−117%
same,mean seizure duration,[3]; 30 mg/kg i.p.,12.5 s
same,mean seizure duration,[3]; 100 mg/kg i.p.,9.7 s
same,mean seizure duration,[3]; 300 mg/kg i.p.,2.8 s
same,mean seizure duration,[3]; 600 mg/kg i.p.,0 s
same,dose-response relationship (in words),[3],displayed a dose-response relationship
"CC(C)(C)c1ccc(C2=CC(c3ccccc3)=CS(C)(=O)=C2)cc1 (stereo not drawn) [Compound 9.1, 3-(4-(tert-butyl)phenyl)-1-methyl-5-phenyl-1λ^6-thiopyran 1-oxide]",efficacy against EKP-induced epileptiform discharges 2 μM,[2]; 2 μM,51%
"Cn1nc(C#Cc2cccc(Cl)c2)c2cccnc21 [Compound 10.2, 3-((3-chlorophenyl)ethynyl)-1-methyl-1H-pyrazolo[3,4-b]pyridine]",effect on EKP-induced elevated PSD (in words),[2]; 2 μM,did not
same,efficacy against EKP-induced epileptiform discharges 2 μM,[2]; 2 μM,19%
same,effect on EKP-induced elevated PSD (in words),[2]; 10 μM,significant decrease
same,efficacy against EKP-induced epileptiform discharges 10 μM,[2]; 10 μM,76%
"Clc1cccc(C#Cc2n[nH]c3ccccc23)c1 [Compound 11.1, 3-((3-chlorophenyl)ethynyl)-1H-indazole]",efficacy against EKP-induced epileptiform discharges 2 μM,[2]; 2 μM,60%
"COc1ccc(C(=O)C#Cc2ccc(C)cc2)cc1 [I.1, 1-(4-methoxyphenyl)-3-(p-tolyl)prop-2-yn-1-one]",activity against EKP-induced drug-resistant seizures (behavioural),[1],active
"Cc1ccc(C#CC(=O)c2ccc([N+](=O)[O-])cc2)cc1 [I.2, 1-(4-nitrophenyl)-3-(p-tolyl)prop-2-yn-1-one]",activity against EKP-induced drug-resistant seizures (behavioural),[1],active
"CC(C)(C)c1ccc(C#CC(=O)c2ccc(N)cc2)cc1 [I.4, 1-(4-aminophenyl)-3-(4-(tert-butyl)phenyl)prop-2-yn-1-one]",activity against EKP-induced drug-resistant seizures (behavioural),[1],active
"CC(C)(C)c1ccc(C#CC(=O)c2ccccc2N)cc1 [I.5, 1-(2-aminophenyl)-3-(4-(tert-butyl)phenyl)prop-2-yn-1-one]",activity against EKP-induced drug-resistant seizures (behavioural),[1],active
"CCCCCCC#CC(=O)c1ccccc1N [I.6, 1-(2-aminophenyl)non-2-yn-1-one]",reduction in EKP-induced drug-resistant seizures (non-significant),[1],approximately 20%
"CCCCCCC#CC(=O)c1ccc(C(=O)OCC)cc1 [I.7, ethyl 4-(non-2-ynoyl)benzoate]",reduction in EKP-induced drug-resistant seizures (non-significant),[1],approximately 20%
"CC(C)(C)c1ccc(C#CC(=O)c2ccsc2)cc1 [I.8, 3-(4-(tert-butyl)phenyl)-1-(thiophen-3-yl)prop-2-yn-1-one]",activity against EKP-induced drug-resistant seizures (behavioural),[1],active
"CCCCCCC#CC(=O)c1ccsc1 [I.9, 1-(thiophen-3-yl)non-2-yn-1-one]",activity against EKP-induced drug-resistant seizures (behavioural),[1],active
"O=C(C#CC1CC1)c1ccsc1 [I.10, 3-cyclopropyl-1-(thiophen-3-yl)prop-2-yn-1-one]",activity against EKP-induced drug-resistant seizures (behavioural),[1],active
"Cc1ccncc1C(=O)C#Cc1ccc(C(C)(C)C)cc1 [I.11, 3-(4-(tert-butyl)phenyl)-1-(4-methylpyridin-3-yl)prop-2-yn-1-one]",activity against EKP-induced drug-resistant seizures (behavioural),[1],active
"CNc1ccccc1C(=O)C#Cc1ccc(C(C)(C)C)cc1 [I.14, 3-(4-(tert-butyl)phenyl)-1-(2-(methylamino)phenyl)prop-2-yn-1-one]",activity against EKP-induced drug-resistant seizures (behavioural),[1],active
"O=c1cc(-c2ccccc2)[nH]c2ccccc12 [III.1, 2-phenylquinolin-4(1H)-one]",reduction in EKP-induced drug-resistant seizures (non-significant),[1],approximately 20%
"CCCC(CCC)C(=O)[O-].[Na+] [valproate, sodium valproate, reference compound]",protection against the electrically induced seizures (in words),"[3]; 300 mg/kg i.p., positive control",completely protected
